The values that follow come from patent US20250268903A1, “RXFP1 AGONISTS” (BRISTOL-MYERS SQUIBB COMPANY, priority 2021, published 2025).

In the assay the target is T1, human RXFP1 (Homo sapiens, UniProt Q9HBX9).
T1 construct: expressed in transfected cells
T1 sequence (Q9HBX9 1-757): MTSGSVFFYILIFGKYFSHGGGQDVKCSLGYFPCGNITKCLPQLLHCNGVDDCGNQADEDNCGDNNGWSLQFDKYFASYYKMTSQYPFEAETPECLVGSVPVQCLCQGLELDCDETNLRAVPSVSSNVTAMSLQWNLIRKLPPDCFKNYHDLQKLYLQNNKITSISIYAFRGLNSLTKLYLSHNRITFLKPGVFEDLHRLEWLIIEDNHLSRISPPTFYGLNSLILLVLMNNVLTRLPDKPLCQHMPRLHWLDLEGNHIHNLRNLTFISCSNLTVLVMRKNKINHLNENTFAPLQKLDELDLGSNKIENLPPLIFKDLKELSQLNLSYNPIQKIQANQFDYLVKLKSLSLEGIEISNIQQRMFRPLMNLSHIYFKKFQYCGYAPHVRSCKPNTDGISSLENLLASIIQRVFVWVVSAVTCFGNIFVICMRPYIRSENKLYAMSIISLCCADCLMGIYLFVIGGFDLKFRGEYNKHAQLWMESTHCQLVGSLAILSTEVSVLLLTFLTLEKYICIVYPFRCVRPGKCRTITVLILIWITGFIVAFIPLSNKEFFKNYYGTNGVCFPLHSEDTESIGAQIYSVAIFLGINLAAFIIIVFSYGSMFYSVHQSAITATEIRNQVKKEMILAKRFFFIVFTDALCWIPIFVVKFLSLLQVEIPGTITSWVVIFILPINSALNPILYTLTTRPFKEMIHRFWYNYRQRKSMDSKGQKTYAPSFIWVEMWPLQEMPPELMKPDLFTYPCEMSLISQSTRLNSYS
The assay can be described thus: hRXFP1 HEK293 cAMP assay (HTRF). It is filed as cell-based. As to conditions: HEK293 cells stably expressing human RXFP1, 30 min at room temperature. A digest of the protocol:
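Potency and activity come from a four-parameter logistic fit of cAMP against compound concentration, tested from 0.010 nM up to 50 μM. The assay uses HEK293 cells stably expressing human RXFP1, incubated 30 min at ambient temperature with phosphodiesterase inhibitor IBMX present.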
As to `COc1ccc(C2CCCC(NC(=O)C3CCOCC3)C2)cc1C(=O)N[C@@H]1C2CCC(/C2=C/C(F)(F)F)[C@@H]1C(=O)Nc1ccc(F)c(C(F)(F)F)c1` (single isomer, unassigned) [Example 48], the EC50 (commonly the concentration giving half of the maximal effect) was 0.833 µM.

Consider `COc1ccc(C(=O)N2CC3(COC3)C2)cc1C(=O)N[C@H]1[C@@H](C(=O)Nc2ccc(F)c(C(F)(F)F)c2)[C@H]2CC[C@@H]1/C2=C\C1CC1` [Example 248, (1R,2S,3R,4R,7Z)-7-(cyclopropylmethyl-idene)-N-[4-fluoro-3-(trifluoromethyl)phenyl]-3-(2-methoxy-5-{2-oxa-6-azaspiro[3.3]heptane-6-carbonyl}benzamido) bicyclo[2.2.1]heptane-2-carboxamide], for which the EC50 is 0.128 µM. The molecule `COc1ccc(C(O)C(F)(F)F)cc1C(=O)NC1C2CCC(/C2=C/C(F)(F)F)[C@@H]1C(=O)Nc1ccc(F)c(C(F)(F)F)c1` (single isomer, unassigned) [Example 5] showed an EC50 of 1.01 µM. With `COc1ccc(C#C[C@H](C)O)cc1C(=O)N[C@@H]1C2CCC(/C2=C/C(F)(F)F)[C@@H]1C(=O)Nc1ccc(F)c(C(F)(F)F)c1` (stereo partly drawn) [Example 71, (2S,3R,7Z)-N-[4-fluoro-3-(trifluoromethyl)phe-nyl]-3-{5-[(3S)-3-hydroxybut-1-yn-1-yl]-2-methoxybenzamido}-7-(2,2,2-trifluoroethylidene)bi-cyclo[2.2.1]heptane-2-carboxamide], the EC50 is 0.118 µM. Molecule `COc1ccc(C#CCO)cc1C(=O)N[C@@H]1C2CCC(/C2=C/C(F)(F)F)[C@@H]1C(=O)Nc1ccc(F)c(C(F)(F)F)c1` (stereo partly shown) [Example 68] had an EC50 of 0.144 µM. In the case of `COc1ccc(C(=O)N(C)CCS(C)(=O)=O)cc1C(=O)N[C@H]1[C@@H](C(=O)Nc2ccc(F)c(C(F)(F)F)c2)[C@H]2CC[C@@H]1/C2=C\C1CC1` [Example 250, N3-[(1R,2R,3S,4R,7Z)-7-(cyclopropyl-methylidene)-3-{[4-fluoro-3-(trifluoromethyl)phenyl]carbamoyl}bicyclo[2.2.1]heptan-2-yl]-N1-(2-methane-sulfonylethyl)-4-methoxy-N1-methylbenzene-1,3-dicarboxamide], the EC50 was found to be 0.0349 µM. To `COc1ccc(/C=C/C(=O)N2CC3CCC(C2)O3)cc1C(=O)N[C@H]1[C@@H](C(=O)Nc2ccc(F)c(C(F)(F)F)c2)[C@H]2CC[C@@H]1/C2=C\C(F)(F)F` [Example 311, (1R,2S,3R,4R,7Z)-N-[4-fluoro-3-(trifluoromethyl)phenyl]-3-{2-methoxy-5-[(1E)-3-{8-oxa-3-azabicyclo[3.2.1]octan-3-yl}-3-oxoprop-1-en-1-yl]benzamido}-7-(2,2,2-trifluoroethylidene) bicyclo[2.2.1]heptane-2-carboxamide] belongs 0.0909 µM. In turn, `COc1ccc(C(=O)N2CC3(C2)CS(=O)(=O)C3)cc1C(=O)N[C@H]1[C@@H](C(=O)Nc2ccc(F)c(C(F)(F)F)c2)[C@H]2CC[C@@H]1/C2=C\C1CC1` [Example 243, (1R,2S,3R,4R,7Z)-7-(cyclopropyl-methylidene)-3-(5-{2,2-dioxo-2λ^6-thia-6-azaspiro[3.3]heptane-6-carbonyl}-2-methoxybenzamido)-N-[4-fluoro-3-(trifluoromethyl)phenyl]bicyclo[2.2.1] heptane-2-carboxamide] gave an EC50 of 0.0119 µM. Take `COc1ccc(C2CC3CC(O)CC32)cc1C(=O)N[C@H]1[C@@H](C(=O)Nc2ccc(F)c(C(F)(F)F)c2)[C@H]2CC[C@@H]1/C2=C\C1CC1` (single isomer, unassigned) [Example 341]: it took 0.126 µM to reach a half-maximal effect (EC50). The molecule `COc1ccc(COCC2COC2)cc1C(=O)N[C@H]1[C@@H](C(=O)Nc2ccc(F)c(C(F)(F)F)c2)[C@H]2CC[C@@H]1/C2=C\C(F)(F)F` [Example 284, (1R,2S,3R,4R,7Z)-N-[4-fluoro-3-(trifluoromethyl)phenyl]-3-(2-methoxy-5-{[(oxetan-3-yl)methoxy]methyl}benzamido)-7-(2,2,2-trifluoroethylidene) bicyclo[2.2.1] heptane-2-carboxamide] had an EC50 of 0.161 µM.
